From patent US20170073337A1, “DIHYDROTHIAZINE AND DIHYDROOXAZINE DERIVATIVES HAVING BACE1 INHIBITORY ACTIVITY” (Shionogi & Co., Ltd., priority 2014, published 2017)
pIC50: −log10 of the molar value. In brackets after ≈: the same amount, converted by molar mass. Like-named read-outs stand apart in the source and are kept apart here.

Key:
Recombinant human BACE1 = target: T1, Recombinant human BACE1 (Homo sapiens, UniProt P56817); test: Assay of BACE1 inhibitory activity: 96-well; format: biochemical; settings: Assay format 96-well
T1 construct: purchased R&D Systems
T1 sequence (P56817 46-501): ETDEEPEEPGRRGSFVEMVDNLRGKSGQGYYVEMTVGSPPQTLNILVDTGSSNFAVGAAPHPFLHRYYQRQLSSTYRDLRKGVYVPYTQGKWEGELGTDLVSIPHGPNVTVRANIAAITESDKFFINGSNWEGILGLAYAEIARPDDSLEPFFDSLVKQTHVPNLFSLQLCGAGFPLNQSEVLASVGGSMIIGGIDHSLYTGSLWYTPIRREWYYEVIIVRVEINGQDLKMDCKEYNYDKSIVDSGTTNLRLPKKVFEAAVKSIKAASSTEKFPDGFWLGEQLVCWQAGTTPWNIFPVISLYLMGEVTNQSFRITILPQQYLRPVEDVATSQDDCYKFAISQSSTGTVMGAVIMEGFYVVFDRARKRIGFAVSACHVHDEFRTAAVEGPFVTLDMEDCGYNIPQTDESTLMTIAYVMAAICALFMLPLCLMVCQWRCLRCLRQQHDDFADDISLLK
Experimental: 48.5 μL of substrate peptide solution (Biotin-XSEVNLDAEFRHDSGC-Eu: X=ε-amino-n-capronic acid. Eu=Europium cryplate) was added to each well of 96-hole half-area plate (a black plate: Costar), and after addition of 0.5 μl of the compound of the present invention (DMSO solution) and 1 μl of Recombinant human BACE1(R&D Systems), the reaction mixture was incubated at 30° C. for 3.5 hours. The substrate peptide was synthesized by reacting Cryptate TBPCOOH mono SMP (CIS bio international) with Biotin-XSEVNLDAEFRHDSGC (Peptide Institute, Inc.).
After the incubation for reaction, 50 μl of 8.0 μg/ml Streptavidin-XL665 (CIS bio international) dissolved in phosphate buffer (150 mmol/L […]—KH2PO4, pH 7.0, 0.008% Triton X-100, 0.8 mol/L KF) was added to each well and left stand at 30° C. for 45 minutes.

[1] = tested on: Aβ production in neuroblastoma SH-SY5Y cells (SH/APPwt); test: β-amyloid (Aβ) production inhibitory effect in cell: 96-well; format: cell-based; settings: Homo sapiens, Assay format 96-well
Experimental: Neuroblastoma SH-SY5V cells (SH/APPwt) with human wild-type R-APP excessively expressed therein were prepared at 8×10^5 cells/mL, and 150 μl portions thereof were inoculated into each well of a 96-well culture plate (Falcon). The cells were cultured for 2 hours at […]. in a 5% gaseous carbon dioxide incubator. […] Namely, the final DMSO concentration was 1%, and the amount of the cell culture was 200 μl. After the incubation was performed for 24 hours from the addition of the test compound, 100 μl of the culture supernatant was collected from each fraction. The amount of the Aβ in each fraction was measured. The Aβ amount was measured as follows. 10 μl of a homogeneous time resolved fluorescence (HTRF) measurement reagent (Amyloid β1-40 peptide: CIS bio international) and 10 μof the culture supernatant were put into a 384-well half area microplate (black microplate, Costar) and mixed with each other, and then left standing overnight at 4° C. while the light was shielded.

CYP1A2 = target: T2, CYP1A2 (Homo sapiens, UniProt P05177); test: CYP inhibition test (CYP1A2); format: in vitro ADME; settings: pooled human liver microsomes; 7-ethoxyresorufin O-deethylation
T2 construct: The commercially available pooled human liver microsomes are used as an enzyme resource; from tissue; host or cells: pooled human liver microsomes
T2 sequence (P05177 1-516): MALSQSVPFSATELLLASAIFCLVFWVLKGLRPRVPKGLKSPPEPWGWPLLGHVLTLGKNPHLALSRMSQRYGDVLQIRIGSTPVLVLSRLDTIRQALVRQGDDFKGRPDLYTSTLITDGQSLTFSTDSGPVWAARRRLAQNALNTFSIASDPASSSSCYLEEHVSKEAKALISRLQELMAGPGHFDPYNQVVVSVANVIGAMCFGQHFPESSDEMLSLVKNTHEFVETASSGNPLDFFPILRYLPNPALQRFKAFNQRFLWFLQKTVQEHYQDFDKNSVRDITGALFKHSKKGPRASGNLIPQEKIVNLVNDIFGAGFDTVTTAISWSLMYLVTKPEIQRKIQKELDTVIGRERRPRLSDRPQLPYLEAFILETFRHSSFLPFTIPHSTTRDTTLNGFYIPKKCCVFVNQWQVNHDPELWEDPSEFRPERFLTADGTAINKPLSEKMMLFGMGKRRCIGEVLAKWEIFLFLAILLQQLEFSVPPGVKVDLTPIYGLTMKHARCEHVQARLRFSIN
Procedure, shortened: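 Inhibition of CYP1A2 was measured in commercially available pooled human liver microsomes (0.2 mg protein/mL) using 7-ethoxyresorufin O-deethylation with 0.5 μmol/L ethoxyresorufin. Test compound at 1, 5, 10, 20 μmol/L in […] Hepes buffer was incubated at 37° C. after NADPH addition; methanol/acetonitrile=1/1 (v/v) stopped the reaction, and resorufin was read fluorescently.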

CYP2C9 = target: T3, CYP2C9 (Homo sapiens, UniProt P11712); test: CYP inhibition test (CYP2C9); format: in vitro ADME; settings: pooled human liver microsomes; tolbutamide methyl-hydroxylation
T3 construct: The commercially available pooled human liver microsomes are used as an enzyme resource; from tissue; host or cells: pooled human liver microsomes
T3 sequence (P11712 whole entry): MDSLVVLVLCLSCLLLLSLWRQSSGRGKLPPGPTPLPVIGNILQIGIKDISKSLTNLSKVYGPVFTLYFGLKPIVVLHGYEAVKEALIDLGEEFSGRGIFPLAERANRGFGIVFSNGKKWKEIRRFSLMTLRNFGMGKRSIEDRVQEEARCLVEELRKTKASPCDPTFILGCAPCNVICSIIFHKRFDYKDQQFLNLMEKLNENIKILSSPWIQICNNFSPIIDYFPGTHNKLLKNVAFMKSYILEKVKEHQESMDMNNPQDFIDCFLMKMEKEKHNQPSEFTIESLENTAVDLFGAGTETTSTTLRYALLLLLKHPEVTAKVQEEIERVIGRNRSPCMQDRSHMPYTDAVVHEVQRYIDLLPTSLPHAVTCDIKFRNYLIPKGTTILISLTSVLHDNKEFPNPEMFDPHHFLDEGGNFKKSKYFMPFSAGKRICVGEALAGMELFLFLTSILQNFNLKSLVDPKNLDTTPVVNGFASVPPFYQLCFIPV
Procedure, shortened: (§1)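 Metabolite formation was quantified by LC/MS/MS: dextrorphan (2D6, 5 μmol/L dextromethorphan), terfenadine alcohol (3A4, 1 μmol/L terfenadine), 4′-hydroxymephenytoin (2C19, 50 μmol/L S-mephenytoin) and hydroxytolbutamide (2C9, 100 μmol/L tolbutamide). Reactions used NADPH-started pooled human liver microsomes (0.2 mg/mL) at 37 °C with compound at 1–20 μmol/L (four points). IC50 was calculated by logistic model relative to the DMSO control.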

CYP2C19 = target: T4, CYP2C19 (Homo sapiens, UniProt P33261); test: CYP inhibition test (CYP2C19); format: in vitro ADME; settings: pooled human liver microsomes; mephenytoin 4′-hydroxylation
T4 construct: The commercially available pooled human liver microsomes are used as an enzyme resource; from tissue; host or cells: pooled human liver microsomes
T4 sequence (P33261 whole entry): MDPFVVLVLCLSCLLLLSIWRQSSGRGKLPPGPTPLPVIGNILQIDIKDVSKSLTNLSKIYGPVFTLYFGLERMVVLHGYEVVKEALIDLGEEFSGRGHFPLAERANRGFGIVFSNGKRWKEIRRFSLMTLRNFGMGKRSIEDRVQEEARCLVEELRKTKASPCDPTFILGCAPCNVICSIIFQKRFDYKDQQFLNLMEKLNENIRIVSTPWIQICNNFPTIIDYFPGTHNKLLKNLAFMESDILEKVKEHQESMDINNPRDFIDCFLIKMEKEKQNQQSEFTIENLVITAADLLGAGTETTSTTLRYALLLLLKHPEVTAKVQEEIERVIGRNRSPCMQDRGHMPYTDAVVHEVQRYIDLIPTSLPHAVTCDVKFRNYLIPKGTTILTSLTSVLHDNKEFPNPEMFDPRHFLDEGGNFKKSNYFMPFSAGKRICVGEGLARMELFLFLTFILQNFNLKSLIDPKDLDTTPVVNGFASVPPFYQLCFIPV
Procedure, shortened: as §1

CYP2D6 = target: T5, CYP2D6 (Homo sapiens, UniProt P10635); test: CYP inhibition test (CYP2D6); format: in vitro ADME; settings: pooled human liver microsomes; dextromethorphan O-demethylation
T5 construct: The commercially available pooled human liver microsomes are used as an enzyme resource; from tissue; host or cells: pooled human liver microsomes
T5 sequence (P10635 whole entry): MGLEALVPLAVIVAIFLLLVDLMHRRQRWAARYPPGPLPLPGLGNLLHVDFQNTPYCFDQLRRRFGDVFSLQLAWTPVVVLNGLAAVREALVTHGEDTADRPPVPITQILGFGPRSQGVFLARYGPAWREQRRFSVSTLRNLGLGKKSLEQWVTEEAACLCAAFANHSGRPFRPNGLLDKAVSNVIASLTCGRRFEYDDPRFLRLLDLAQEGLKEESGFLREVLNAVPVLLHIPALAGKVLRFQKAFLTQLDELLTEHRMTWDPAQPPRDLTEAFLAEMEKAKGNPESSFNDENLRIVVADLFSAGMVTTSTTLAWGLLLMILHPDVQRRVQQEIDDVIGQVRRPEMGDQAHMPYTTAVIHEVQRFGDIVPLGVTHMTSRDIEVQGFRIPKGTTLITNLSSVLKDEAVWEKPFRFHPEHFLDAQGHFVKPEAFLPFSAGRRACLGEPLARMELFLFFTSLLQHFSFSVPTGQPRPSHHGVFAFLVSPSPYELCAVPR
Excerpt: The CYP inhibition test is a test to assess the inhibitory effect of a compound of the present invention towards typical substrate metabolism reactions on CYP enzymes in human liver microsomes. The marker reactions on human main five CYP enzymes (CYP1A2, 2C9, 2C19, 2D6, and 3A4) are used as follows: 7-ethoxyresorufin O-deethylation (CYP1A2), tolbutamide methyl-hydroxylation (CYP2C9), mephenytoin 4′-hydroxylation (CYP2C19), dextromethorphan O-demethylation (CYP2D6), and terfenadine hydroxylation (CYP3A4). The commercially available pooled human liver microsomes are used as an enzyme resource.
The reaction conditions were as follows: substrate, 0.5 μmol/L ethoxyresorufin (CYP1A2), 100 μmol/L tolbutamide (CYP2C9), 50 μmol/L, S-mephenytoin (CYP2C19), 5 μmol/L dextromethorphan (CYP2D6), 1 μmol/L terfenadine (CYP3A4): reaction time, 15 minutes: reaction temperature, 37° C.; enzyme, pooled human liver microsomes 0.2 mg protein/mL; concentrations of the compound of the present invention, 1, 5, 10, 20 μmol/L (four points).
Five kinds of substrates, human liver microsomes, and a compound solution of the present invention in […] Hepes buffer were added to a 96-well plate at the composition as described above as a reaction solution. NADPH as a cofactor was added to this 96-well plate in order to initiate metabolism reactions. After the incubation at 37° C.for […], a methanol/acetonitrile=1/1 (v/v) solution was added to stop the reaction. After the centrifugation at 3000 rpm for 15 minutes, resorufin (CYP1A2 metabolite) in the supernatant was quantified by a fluorescent plate reader, and hydroxytolbutamide (CYP2C9 metabolite), 4′-hydroxymephenytoin (CYP2C19 metabolite), dextrorphan (CYP2D6 metabolite), and terfenadine alcohol metabolite (CYP3A4 metabolite) in the supernatant were quantified by LC/MS/MS.
The sample adding DMSO to a reaction system instead of compound of the present invention solution was adopted as a control (100%) because DMSO was used as a solvent to dissolve a compound of the present invention. Remaining activity (%) was calculated at each concentration of a compound of the present invention, and IC50 value was calculated by reverse presumption by a logistic model using a concentration and an inhibition rate.

CYP3A4 = target: T6, CYP3A4 (Homo sapiens, UniProt P08684); test: CYP inhibition test (CYP3A4); format: in vitro ADME; settings: pooled human liver microsomes; terfenadine hydroxylation
T6 construct: The commercially available pooled human liver microsomes are used as an enzyme resource; from tissue; host or cells: pooled human liver microsomes
T6 sequence (P08684 whole entry): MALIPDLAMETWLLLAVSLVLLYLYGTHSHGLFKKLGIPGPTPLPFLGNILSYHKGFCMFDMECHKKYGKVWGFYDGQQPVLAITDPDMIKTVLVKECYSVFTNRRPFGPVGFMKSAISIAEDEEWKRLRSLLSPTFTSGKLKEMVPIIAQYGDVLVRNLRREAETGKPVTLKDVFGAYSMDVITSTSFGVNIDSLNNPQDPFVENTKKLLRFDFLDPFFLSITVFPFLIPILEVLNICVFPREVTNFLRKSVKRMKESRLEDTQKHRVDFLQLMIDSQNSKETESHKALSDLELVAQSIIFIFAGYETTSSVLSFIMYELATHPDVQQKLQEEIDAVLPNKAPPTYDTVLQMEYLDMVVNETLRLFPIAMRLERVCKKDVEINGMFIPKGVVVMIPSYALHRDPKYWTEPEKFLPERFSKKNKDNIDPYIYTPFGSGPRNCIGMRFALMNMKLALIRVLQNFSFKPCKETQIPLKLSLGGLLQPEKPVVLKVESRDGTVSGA
Procedure, shortened: as §1

Solubility test = format: physicochemical; settings: kinetic from dmso stock; for solubility kinetic at 16 h: 25 °C
Procedure, shortened: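 Dissolved concentration determined by LC/MS or SPE/MS (absolute calibration) in diluted filtrates, after 2 μL of 10 mmol/L DMSO stock was added to 198 μL JP 1st or JP 2nd fluid and equilibrated either 1 h with shaking at room temperature or 16 h standing at 25 °C.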

[2] = target: T7, human ether-a-go-go related gene (hERG) channel (Homo sapiens, UniProt Q12809); test: hERG test; format: cell-based; settings: % inhibition of IKr tail peak current at 3 uM; CHO cells expressing hERG
T7 construct: expressed in transfected cells; host or cells: CHO cells
T7 sequence (Q12809 whole entry): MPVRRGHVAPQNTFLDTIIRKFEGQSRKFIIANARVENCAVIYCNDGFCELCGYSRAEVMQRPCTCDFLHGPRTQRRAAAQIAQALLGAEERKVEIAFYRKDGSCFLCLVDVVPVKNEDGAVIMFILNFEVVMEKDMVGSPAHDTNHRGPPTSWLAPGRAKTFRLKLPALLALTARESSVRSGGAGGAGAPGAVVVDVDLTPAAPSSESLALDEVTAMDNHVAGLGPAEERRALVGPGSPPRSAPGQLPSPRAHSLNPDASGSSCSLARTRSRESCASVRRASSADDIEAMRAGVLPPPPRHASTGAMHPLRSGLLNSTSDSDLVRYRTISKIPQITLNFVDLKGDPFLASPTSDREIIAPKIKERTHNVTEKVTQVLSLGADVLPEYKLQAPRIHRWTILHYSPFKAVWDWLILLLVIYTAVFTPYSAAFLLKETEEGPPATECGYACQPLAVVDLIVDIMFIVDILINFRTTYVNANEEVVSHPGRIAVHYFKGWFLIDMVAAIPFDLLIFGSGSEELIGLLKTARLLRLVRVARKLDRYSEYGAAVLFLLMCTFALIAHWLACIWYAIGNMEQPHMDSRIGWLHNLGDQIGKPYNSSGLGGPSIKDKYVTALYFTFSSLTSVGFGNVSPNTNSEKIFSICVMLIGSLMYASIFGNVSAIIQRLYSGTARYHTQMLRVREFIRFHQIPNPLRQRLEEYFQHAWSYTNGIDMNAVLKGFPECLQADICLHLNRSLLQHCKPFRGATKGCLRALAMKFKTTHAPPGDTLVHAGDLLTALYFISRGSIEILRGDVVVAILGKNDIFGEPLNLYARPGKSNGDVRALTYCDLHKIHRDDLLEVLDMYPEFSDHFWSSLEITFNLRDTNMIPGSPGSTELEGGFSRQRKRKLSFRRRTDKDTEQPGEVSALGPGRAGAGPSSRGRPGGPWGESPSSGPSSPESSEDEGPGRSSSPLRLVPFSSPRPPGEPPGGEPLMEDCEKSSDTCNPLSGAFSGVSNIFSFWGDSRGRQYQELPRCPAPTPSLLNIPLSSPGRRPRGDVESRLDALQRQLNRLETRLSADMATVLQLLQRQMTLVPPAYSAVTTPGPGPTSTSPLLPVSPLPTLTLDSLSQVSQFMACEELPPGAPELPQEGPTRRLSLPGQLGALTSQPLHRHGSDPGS
Procedure, shortened: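 IKr was recorded from hERG-expressing CHO cells by automated whole-cell patch clamp at a holding potential of −80 mV. A −50 mV leak step was followed by a 2 s depolarization to +20 mV and a 2 s repolarization to −50 mV, when current was measured.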

Metabolic stability test = format: in vitro ADME; settings: human liver microsomes, 37° C., 30 minutes, NADPH
Procedure, shortened: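 Parent compound was measured by LC/MS/MS or SPE/MS after a methanol/acetonitrile quench and reported as % remaining, with the 0 min sample set to 100%. Incubations ran 30 min at 37 °C in pH 7.4 Tris buffer containing pooled human liver microsomes at 0.5 mg protein/mL and 1 mmol/L NADPH.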

[3] = JP 1st fluid, pH 1.2, simulated gastric fluid, read-out: JP1
[4] = JP 2nd fluid A, pH 6.8, aqueous buffer, read-out: JP2_μM

| SMILES | pIC50 (Recombinant human BACE1) | pIC50 [1] | pIC50 (CYP1A2) | pIC50 (CYP2C9) | pIC50 (CYP2C19) | pIC50 (CYP2D6) | pIC50 (CYP3A4) | solubility kinetic at 1 h (Solubility test; [3]) | solubility kinetic at 1 h (Solubility test; [4]) | solubility kinetic at 16 h (Solubility test; [3]) | solubility kinetic at 16 h (Solubility test; [4]) | remaining % (Metabolic stability test) | hERG_3 uM_% [2] |
| --- | --- | --- | --- | --- | --- | --- | --- | --- | --- | --- | --- | --- | --- |
| COc1cnc(C(=O)Nc2ccc(F)c([C@@]3(C)N=C(N)O[C@H]4[C@@H]3OCC4(F)F)c2)cn1 [Compound I-36] | 7.66 | 8.64 | ≤ 4.70 | ≤ 4.70 | ≤ 4.70 | ≤ 4.70 | ≤ 4.70 | 37.6 µM (≈ 16.4 µg/mL) | 15.9 µM (≈ 6.95 µg/mL) | – | – | – | 29.9% |
| C[C@]1(c2cc(NC(=O)c3ccc(C#N)cn3)ccc2F)N=C(N)OCC12CC(F)(F)C2 [Compound I-43] | 7.66 | 9.21 | ≤ 4.70 | ≤ 4.70 | ≤ 4.70 | ≤ 4.70 | ≤ 4.70 | – | – | 29.9 µM (≈ 12.8 µg/mL) | > 50 µM | 84.5% | – |
| CO[C@H]1[C@@H](C(F)(F)F)OC(N)=N[C@]1(C)c1cc(NC(=O)c2ccc(C#N)cn2)ccc1F [Compound I-34] | 7.78 | 8.73 | ≤ 4.70 | ≤ 4.70 | ≤ 4.70 | ≤ 4.70 | ≤ 4.70 | – | – | 44.4 µM (≈ 20 µg/mL) | > 50 µM | – | 15.5% |
| C[C@]1(c2nc(NC(=O)c3ccc(Cl)cn3)ccc2F)N=C(N)S[C@H](CF)[C@@H]1F [Compound I-6] | 7.82 | 8.89 | ≤ 4.70 | – | ≤ 5.00 | – | ≤ 4.70 | – | – | – | – | – | – |
| CO[C@H]1[C@@H](CF)OC(N)=N[C@]1(C)c1cc(NC(=O)c2ncc(Cl)cc2Cl)ccc1F [Compound I-26] | 7.47 | 8.75 | – | ≤ 4.70 | ≤ 4.70 | ≤ 4.70 | ≤ 4.70 | – | – | 41.9 µM (≈ 19.2 µg/mL) | > 50 µM | 76% | 29.6% |
| C[C@]1(c2nc(NC(=O)c3cnc(OCF)cn3)ccc2F)N=C(N)S[C@H](CF)[C@@H]1F [Compound I-5] | 7.52 | 8.54 | ≤ 4.70 | ≤ 5.00 | ≤ 4.70 | – | ≤ 4.70 | – | – | 34.3 µM (≈ 15.2 µg/mL) | > 50 µM | – | 27.7% |

Second part, led by results:

| pIC50 (Recombinant human BACE1) | pIC50 [1] | pIC50 (CYP1A2) | pIC50 (CYP2C9) | pIC50 (CYP2C19) | pIC50 (CYP2D6) | pIC50 (CYP3A4) | solubility kinetic at 1 h (Solubility test; [3]) | solubility kinetic at 1 h (Solubility test; [4]) | solubility kinetic at 16 h (Solubility test; [3]) | solubility kinetic at 16 h (Solubility test; [4]) | remaining % (Metabolic stability test) | SMILES | hERG_3 uM_% [2] |
| --- | --- | --- | --- | --- | --- | --- | --- | --- | --- | --- | --- | --- | --- |
| 7.64 | 8.37 | ≤ 4.70 | ≤ 4.70 | ≤ 4.70 | ≤ 5.00 | ≤ 4.70 | – | – | 31.2 µM (≈ 14.8 µg/mL) | > 50 µM | – | CO[C@H]1[C@@H](CF)OC(N)=N[C@]1(C)c1cc(NC(=O)c2ncc(Cl)cc2Cl)ccc1Cl [Compound I-22] | 14.2% |
| 7.46 | 8.82 | ≤ 4.70 | ≤ 4.70 | ≤ 4.70 | ≤ 4.70 | ≤ 4.70 | – | – | 46.7 µM (≈ 19.8 µg/mL) | > 50 µM | 86.6% | CO[C@H]1[C@@H](CF)OC(N)=N[C@]1(C)c1cc(NC(=O)c2ccc(Cl)cn2)ccc1F [Compound I-23] | – |
| – | 8.53 | ≤ 4.70 | ≤ 4.70 | ≤ 4.70 | – | ≤ 4.70 | – | – | 28.8 µM (≈ 12.7 µg/mL) | > 50 µM | – | CO[C@H]1[C@@H](CF)OC(N)=N[C@]1(C)c1cc(NC(=O)c2ccc(Cl)cn2)ccc1Cl [Compound I-21] | 51.1% |
